Laboratory results reported in patent US11046700B2, “Substituted imidazo[1,2-a]pyrazines, pyrazolo[1,5-c]pyrimidines, pyrazolo[1,5-a]pyridines, and purines for the treatment of schistosomiasis” (Merck Patent GmbH, priority 2017, dated 2021).
pIC50: −log10 of the molar value.

What was measured:
S. mansoni adult worms [1] = assay: Mouse infection model, adult worms, oral treatment day 42 post infection, worm recovery; type: in vivo, Schistosoma mansoni; details: mice
Experimental: (§1) Methods for the subcutaneous infection of mice and subsequent worm recovery were as described in Mansour et al (2016) except that infection was with 150 cercariae and the perfusion medium was citrate saline (0.9% sodium chloride, 1.5% tri-sodium citrate). Perfusion was carried out 8 days (adult infections) or 15 days (juvenile infections) after treatment. Perfuseate was collected into 30 mL universal tubes. RBC (Red Blood Cells) were removed by allowing the perfuseate to settle for 10 min, removal of most of the supernatant and washing once as above with 10 mL perfusion medium. A drop of dilute aqueous saponin solution was added to lyse any remaining RBC and the worm suspension poured into a grid-marked small petri dish. The tube was rinsed out into the petri dish and examined for any remaining worms. Worms were counted using a dissecting microscope. The mouse livers removed after perfusion were squashed between two thick glass plates and examined visually and any remaining worms added to those counted as above.
(§2) For testing efficacy against the juvenile worms, treatment was on day 25 post infection and for testing against the adult worms on day 42 post infection. Drugs were suspended in 7% Tween-80/3% Ethanol/double distilled water and drug dispersal was facilitated by vortexing and using a sonicating water bath (Formulation F1). Alternatively, drugs were suspended in 10% DMSO, 90% double distilled water containing 50 mM Na2HPO4 with 0.5% Tween-80 by first dissolving or suspending the drug in DMSO then adding the DMSO solution/suspension to the aqueous solution (Formulation F2). In a further set of conditions, drugs were first dissolved in DMSO, then diluted with corn oil to give a 5% DMSO+drug solution/suspension (Formulation F3)
(§3) The drug solution/suspensions were given by oral gavage at the rate of 10 ml/kg. Positive controls (artemether for juvenile worms and praziquantel for adult worms) were used in each experiment.

[2] = tested on: S. mansoni juvenile worms; assay: Mouse infection model, juvenile worms, oral treatment day 25 post infection, worm recovery; type: in vivo, Schistosoma mansoni; details: mice
Experimental: as §1, §2, §3

HepG2 cell line = assay: Cytotoxicity against human HepG2 cell lines; type: cell-based
S. mansoni adult worms [3] = assay: In vitro assay, S. mansoni adult worms; type: cell-based; details: Schistosoma mansoni; S. mansoni adult worms, in vitro; read-out: (a) Adult
Experimental: (§4) The routine biological assays using adult or juvenile worms and cytotoxicity assays using MRC-5 cells have been disclosed previously in Mansour, N. R., et al. (2016). “High Throughput Screening Identifies Novel Lead Compounds with Activity against Larval, Juvenile and Schistosoma mansoni PLoS Negl Trap Dis 10(4): e0004659. Cytotoxicity assays using the HepG2 cell line were carried out as described in Molecular Diversity (2015) 19, 251-261.
(a) S. mansoni adult worms

[4] = tested on: S. mansoni juvenile worms; assay: In vitro assay, S. mansoni juvenile worms; type: cell-based; details: Schistosoma mansoni; S. mansoni juvenile worms, in vitro; read-out: (b) Juvenile
Experimental: as §4
(b) S. mansoni juvenile worms

[5] = oral 50 mg/kg, Formulation F1, negative control 33.8 ± 4.1
[6] = oral 100 mg/kg, Formulation F1, negative control 33.8 ± 4.1
[7] = oral 400 mg/kg, Formulation F1, negative control 33.8 ± 4.1
[8] = oral 400 mg/kg, Formulation F1, negative control 38.8 ± 5.4
[9] = oral 50 mg/kg, Formulation F1, negative control 33.2 ± 9.09
[10] = oral 400 mg/kg, Formulation F1, negative control 33.0 ± 7.2
[11] = oral 400 mg/kg, Formulation F1, negative control 33.2 ± 9.09
[12] = oral 50 mg/kg, Formulation F3, negative control 32.8 ± 14
[13] = oral 25 mg/kg, Formulation F1, negative control 33.2 ± 9.09
[14] = oral 25 mg/kg, Formulation F2, negative control 33.2 ± 9.09
[15] = oral 50 mg/kg, Formulation F1, negative control 33.0 ± 7.2
[16] = oral 5 mg/kg, Formulation F2, negative control 33.2 ± 9.09
[17] = oral 6.25 mg/kg, Formulation F3, negative control 32.6 ± 10.6

O=C(C1CCCCC1)N1CC(=O)N2CCc3ccccc3C2C1 (stereo not shown) [Praziquantel, praziquantel]
Mean worm recovery (S. mansoni adult worms [1]; [5]): 29.8 ± 8.4
Percent worm reduction (S. mansoni adult worms [1]; [5]): 13%
Mean worm recovery (S. mansoni adult worms [1]; [6]): 12.2 ± 6.3
Percent worm reduction (S. mansoni adult worms [1]; [6]): 64%
Mean worm recovery (S. mansoni adult worms [1]; [7]): 2.6 ± 1.5
Percent worm reduction (S. mansoni adult worms [1]; [7]): 92%
Mean worm recovery (S. mansoni adult worms [1]; [8]): 2.3 ± 1.7
Percent worm reduction (S. mansoni adult worms [1]; [8]): 94%
Mean worm recovery [2, 9]: 26.2 ± 9.44
Percent worm reduction [2, 9]: 21%

CO[C@H]1O[C@@H]2O[C@@]3(C)CC[C@H]4[C@H](C)CC[C@@H]([C@H]1C)[C@@]24OO3 [Artemether, artemether, reference compound]
Mean worm recovery [2, 10]: 8.2 ± 4.1
Percent worm reduction [2, 10]: 75%
Mean worm recovery [2, 11]: 8.6 ± 4.16
Percent worm reduction [2, 11]: 74%

CC(C)c1cc(-c2cn3c(-c4ccc5[nH]ncc5c4F)c(C(F)(F)F)nc3cn2)ccc1F [Example 67, 3-(4-Fluoro-1H-indazol-5-yl)-6-(4-fluoro-3-isopropyl-phenyl)-2-trifluoromethyl-imidazo[1,2-a]pyrazine]
(e) Cytotox HepG2 (HepG2 cell line): 17.0 µM
pIC50 (S. mansoni adult worms [3]): 8.70
pIC50 [4]: 8.70
Mean worm recovery [2, 12]: 0
Percent worm reduction [2, 12]: 100%

CC(C)c1nc2cnc(-c3ccc(F)c(C(F)(F)F)c3)cn2c1-c1ccc2[nH]ncc2c1F [Example 2, 4-fluoro-5-{6-[4-fluoro-3-(trifluoromethyl)phenyl]-2-(propan-2-yl)imidazo[1,2-a]pyrazin-3-yl}-1H-indazole]
(e) Cytotox HepG2 (HepG2 cell line): 10.4 µM
pIC50 (S. mansoni adult worms [3]): 7.33
pIC50 [4]: 7.72
Mean worm recovery [2, 13]: 7.2 ± 3.9
Percent worm reduction [2, 13]: 78%
Mean worm recovery [2, 14]: 4.4 ± 3.91
Percent worm reduction [2, 14]: 87%
Mean worm recovery [2, 15]: 4.0 ± 4.1
Percent worm reduction [2, 15]: 88%

Fc1ccc(-c2cn3c(-c4ccc5[nH]ncc5c4F)c(C4CC4)nc3cn2)cc1C(F)(F)F [Example 32]
(e) Cytotox HepG2 (HepG2 cell line): 16.1 µM
pIC50 (S. mansoni adult worms [3]): 7.20
Mean worm recovery [2, 15]: 29.0 ± 7.9
Percent worm reduction [2, 15]: 12%

Oc1cc(F)c(-c2c(C3CC3)nc3cnc(-c4ccc(F)c(C(F)(F)F)c4)cn23)c(F)c1 [Example 34, 4-(2-cyclopropyl-6-(4-fluoro-3-(trifluoromethyl)phenyl)imidazo[1,2-a]pyrazin-3-yl)-3,5-difluorophenol]
(e) Cytotox HepG2 (HepG2 cell line): 8.9 µM
pIC50 (S. mansoni adult worms [3]): 7.16
pIC50 [4]: 7.06
Mean worm recovery [2, 15]: 24.8 ± 7.4
Percent worm reduction [2, 15]: 25%

CC(C)c1nn2cnc(-c3cccc(C(F)(F)F)c3)cc2c1-c1c(F)cc(O)cc1F [Example 24, 3,5-difluoro-4-(2-isopropyl-5-(3-(trifluoromethyl)phenyl)pyrazolo[1,5-c]pyrimidin-3-yl)phenol]
(e) Cytotox HepG2 (HepG2 cell line): 8.4 µM
pIC50 (S. mansoni adult worms [3]): 7.66
pIC50 [4]: > 7.92

CCc1nc2cnc(-c3ccc(F)c(C(F)(F)C(F)(F)F)c3)cn2c1-c1c(F)cc(O)cc1F [Example 45, 4-{2-ethyl-6-[4-fluoro-3-(1,1,2,2,2-pentafluoroethyl)phenyl]imidazo[1,2-a]pyrazin-3-yl}-3,5-difluorophenol]
pIC50 [4]: 7.68
Mean worm recovery [2, 13]: 31.8 ± 5.76
Percent worm reduction [2, 13]: 4%

CC(C)Oc1cccc(-c2cn3c(-c4ccc5[nH]ncc5c4F)c(C(F)(F)F)nc3cn2)c1 [Example 86, 3-(4-Fluoro-1H-indazol-5-yl)-6-(3-isopropoxy-phenyl)-2-trifluoromethyl-imidazo[1,2-a]pyrazine]
(e) Cytotox HepG2 (HepG2 cell line): 13.2 µM
pIC50 (S. mansoni adult worms [3]): 7.77
pIC50 [4]: 7.59

Cc1nc2cnc(-c3cccc(C(F)(F)C(F)(F)F)c3)cn2c1-c1c(F)cc(O)cc1F [Example 49, 3,5-difluoro-4-[2-methyl-6-[3-(pentafluoroethyl)phenyl]imidazo[1,2-a]pyrazin-3-yl]phenol]
(e) Cytotox HepG2 (HepG2 cell line): 9.3 µM
pIC50 (S. mansoni adult worms [3]): 7.47
pIC50 [4]: 7.46

Fc1c(-c2c(C(F)(F)F)nc3cnc(-c4cccc(C(F)(F)C(F)(F)F)c4)cn23)ccc2[nH]ncc12 [Example 29, 4-fluoro-5-{2-trifluoromethyl-6-[3-(pentafluoroethyl)phenyl]imidazo[1,2-a]pyrazin-3-yl}-1H-indazole]
(e) Cytotox HepG2 (HepG2 cell line): 8.9 µM
pIC50 (S. mansoni adult worms [3]): 7.52
pIC50 [4]: 7.55
Mean worm recovery [2, 16]: 14.8 ± 6.61
Percent worm reduction [2, 16]: 55%
Mean worm recovery [2, 17]: 2.0 ± 2.6
Percent worm reduction [2, 17]: 94%
Mean worm recovery [2, 14]: 4 ± 1.41
Percent worm reduction [2, 14]: 88%

Fc1ccc(-c2cn3c(-c4ccc5[nH]ncc5c4F)c(C(F)(F)F)nc3cn2)cc1OC(F)(F)F [Example 71, 3-(4-Fluoro-1H-indazol-5-yl)-6-(4-fluoro-3-trifluoromethoxy-phenyl)-2-trifluoromethyl-imidazo[1,2-a]pyrazine]
(e) Cytotox HepG2 (HepG2 cell line): 12.2 µM
pIC50 (S. mansoni adult worms [3]): 7.85
pIC50 [4]: 7.68

CCc1nc2cnc(-c3ccc(F)c(C(C)C)c3)cn2c1-c1ccc2[nH]ncc2c1F [Example 75, 2-Ethyl-3-(4-fluoro-1H-indazol-5-yl)-6-(4-fluoro-3-isopropyl-phenyl)-imidazo[1,2-a]pyrazine]
(e) Cytotox HepG2 (HepG2 cell line): 11.3 µM
pIC50 (S. mansoni adult worms [3]): 8.40
pIC50 [4]: 8.30

CC1(c2nc3cnc(-c4ccc(F)c(C(F)(F)F)c4)cn3c2-c2c(F)cc(O)cc2F)CC1 [Example 33, 3,5-difluoro-4-[2-(1-methyl-cycloprop-1-yl)-6-[4-fluoro-3-(trifluoromethyl)phenyl]imidazo[1,2-a]pyrazin-3-yl]phenol]
(e) Cytotox HepG2 (HepG2 cell line): 7.9 µM
pIC50 (S. mansoni adult worms [3]): 7.25
pIC50 [4]: 7.10

CC(C)c1nc2cnc(-c3cccc(C(F)(F)F)c3)cn2c1-c1c(F)cc(O)cc1F [Example 19, 3,5-difluoro-4-[2-(propan-2-yl)-6-[3-(trifluoromethyl)phenyl]imidazo[1,2-a]pyrazin-3-yl]phenol]
(e) Cytotox HepG2 (HepG2 cell line): 7.5 µM
pIC50 (S. mansoni adult worms [3]): 7.38
pIC50 [4]: 7.05

Oc1cc(F)c(-c2c(C3CC3)nc3cnc(-c4ccc(F)c(S(F)(F)(F)(F)F)c4)cn23)c(F)c1 [Example 56, 4-[2-Cyclopropyl-6-(4-fluoro-3-pentafluorosulfanyl-phenyl)-imidazo[1,2-a]pyrazin-3-yl]-3,5-difluoro-phenol]
(e) Cytotox HepG2 (HepG2 cell line): 10.1 µM
pIC50 (S. mansoni adult worms [3]): 7.72
pIC50 [4]: 7.70

CC(C)c1nn2cnc(-c3ccc(F)c(C(F)(F)C(F)(F)F)c3)cc2c1-c1ccc2[nH]ncc2c1F [Example 58, 3-(4-Fluoro-1H-indazol-5-yl)-5-(4-fluoro-3-pentafluoroethyl-phenyl)-2-isopropylpyrazolo[1,5-c]pyrimidine]
(e) Cytotox HepG2 (HepG2 cell line): 10.8 µM
pIC50 (S. mansoni adult worms [3]): 7.51
pIC50 [4]: 7.70

CC(C)c1cccc(-c2cn3c(-c4ccc5[nH]ncc5c4F)c(C(F)(F)F)nc3cn2)c1 [Example 66, 3-(4-Fluoro-1H-indazol-5-yl)-6-(3-isopropyl-phenyl)-2-trifluoromethyl-imidazo[1,2-a]pyrazine]
(e) Cytotox HepG2 (HepG2 cell line): 12.9 µM
pIC50 (S. mansoni adult worms [3]): 8.28
pIC50 [4]: 8.28

CC(C)Oc1cc(-c2cn3c(-c4ccc5[nH]ncc5c4F)c(C(F)(F)F)nc3cn2)ccc1F [Example 81, 3-(4-Fluoro-1H-indazol-5-yl)-6-(4-fluoro-3-isopropoxy-phenyl)-2-trifluoromethyl-imidazo[1,2-a]pyrazine]
(e) Cytotox HepG2 (HepG2 cell line): 9.2 µM
pIC50 (S. mansoni adult worms [3]): 7.96
pIC50 [4]: 7.92
